{
  "source": "patent EP1568762A1",
  "about": "“Detergent tablet compositions and their manufacture” (UNILEVER N.V., priority 2004, dated 2005)",
  "origin": "cited, not measured here",
  "key": {"[1]": {"settings": "other common materials, by contrast, at 20°C"}},
  "note": "Where two headings read alike, the source gives them in different places.",
  "data": [
    {"molecule": "O=BO[O-].[Na+]", "note": "[Sodium perborate anhydrous]", "values": [
      {"measurement": "Water Solubility (g/100g)", "setting": "[1]", "value": 3.7, "unit": "g/100g"}
    ]},
    {"molecule": "NC(N)=O", "note": "[Urea]", "values": [
      {"measurement": "Water Solubility (g/100g)", "setting": "highly water-soluble materials, grams of solid required to form a saturated solution in 100 grams of water at 20°C", "value": ">100", "unit": "g/100g"}
    ]},
    {"molecule": "O=P(O)(O)OP(=O)(O)OP(=O)(O)O", "note": "[Sodium tripolyphosphate anhydrous]", "values": [
      {"measurement": "Water Solubility (g/100g)", "setting": "[1]", "value": 15, "unit": "g/100g"}
    ]}
  ]
}
